Laboratory results reported in patent publication US20100041699A1, “MICROCRYSTALLINE (5-FLUORO-2-METHYL-3-QUINOLIN-2-YLMETHYL-INDOL-1-YL) ACETIC ACID” (OXAGEN LIMITED, priority 2005, published 2010).

Columns and labels:
Assay type in all cases: physicochemical
[1] = Crystal sizes measured by laser diffraction; settings: for Particle Diameter, 10% particles under given diameter / Particle Diameter, 50% particles under given diameter / Particle Diameter, 90% particles under given diameter: laser diffraction; for Particle Diameter, 10% particles under given diameter: 10% of particles under given diameter; for Particle Diameter, 50% particles under given diameter: 50% of particles under given diameter; for Particle Diameter, 90% particles under given diameter: 90% of particles under given diameter
Experimental: The sizes of the crystals of one batch of Product A ((5-fluoro-2-methyl-3-quinolin-2-ylmethylindo-1-yl)-acetic acid recrystallised from DMSO/water as described above in Example 1, step 4) and three batches of Product B ((5-fluoro-2-methyl-3-quinolin-2-ylmethylindo-1-yl)-acetic acid recrystallised from DMSO/water and then treated with potassium carbonate and citric acid as described above in Example 1, step 4a) were measured by laser diffraction and compared.

pKa of the acid = experiment: pKa of the acid
Text: The term “weak acid” as used in step (ii) of the method is a term known in the art, and means an acid that partially dissociates in an aqueous solution.

Solubility in solvents = settings: in most solvents

Cc1c(Cc2ccc3ccccc3n2)c2cc(F)ccc2n1CC(=O)O [(5-fluoro-2-methyl-3-quinolin-2-ylmethyl-indol-1-yl)-acetic acid]
diameter of 90% of the crystals ([1]; recrystallised from DMSO/water): 50-70 μm
pKa (pKa of the acid): 2.8
solubility (Solubility in solvents): sparingly soluble in most solvents

Cc1c(Cc2ccc3ccccc3n2)c2cc(F)ccc2n1CC(=O)O [Product A, (5-fluoro-2-methyl-3-quinolin-2-ylmethylindo-1-yl)-acetic acid]
Particle Diameter, 10% particles under given diameter ([1]; listed as A): 11.93 μm
Particle Diameter, 10% particles under given diameter ([1]; listed as product A): less than 10 μm
Particle Diameter, 50% particles under given diameter [1]: 30.13 μm
Particle Diameter, 90% particles under given diameter ([1]; listed as A): 52.13 μm

Cc1c(Cc2ccc3ccccc3n2)c2cc(F)ccc2n1CC(=O)O [Product B, (5-fluoro-2-methyl-3-quinolin-2-ylmethylindo-1-yl)-acetic acid]
Particle Diameter, 10% particles under given diameter ([1]; listed as B (Batch 1)): 0.10 μm
Particle Diameter, 10% particles under given diameter ([1]; listed as B (Batch 2)): 0.20 μm
Particle Diameter, 10% particles under given diameter ([1]; listed as B (Batch 3)): 0.11 μm
Particle Diameter, 50% particles under given diameter ([1]; listed as B (Batch 1)): 0.27 μm
Particle Diameter, 50% particles under given diameter ([1]; listed as B (Batch 2)): 0.37 μm
Particle Diameter, 50% particles under given diameter ([1]; listed as B (Batch 3)): 0.31 μm
Particle Diameter, 90% particles under given diameter ([1]; listed as B (Batch 1)): 0.92 μm
Particle Diameter, 90% particles under given diameter ([1]; listed as B (Batch 2)): 0.80 μm
Particle Diameter, 90% particles under given diameter ([1]; listed as B (Batch 3)): 1.53 μm
Particle Diameter, 90% particles under given diameter ([1]; listed as product B): less than 2 μm
